Reference: ChEMBL document CHEMBL6182945, “MMAE-Based Peptide-Drug Conjugates Targeting GPC3 for Precision Chemoradiotherapy in Hepatocellular Carcinoma” (J Med Chem, 2025)
Active and inactive are the calls of the source. The rule behind the calls is not given here.

How the values were obtained:
Huh-7 [1] = assay: Induction of immunogenic cell death (ICD) in human Huh-7 cells assessed as externalization of calreticulin (CALR) on the cell membrane at 100 nM measured after 24 hrs by immunofluorescence assay; type: functional, cell-based
LX-2 [2] = assay: Cell cycle arrest in human LX-2 cells assessed as accumulation of cells at G2/M phase at 30 nM measured after 24 hrs incubation by PI staining based flow cytometry (reference value: 14.65%); type: functional
Huh-7 [3] = assay: In vivo antitumor activity against human Huh-7 cells xenografted in female BALB/c mouse assessed as reduction in tumor volume at 0.5 mg/kg, iv total 4 doses measured on day 17 relative to control; type: functional; design: scale not given: the % may be the effect or the level left; conditions: time 17 day
Huh-7 [4] = assay: Cell cycle arrest in human Huh-7 cells assessed as accumulation of cells at G2/M phase at 30 nM measured after 24 hrs incubation by PI staining based flow cytometry (reference value: 18.88%); type: functional
Hep 3B2 [5] = assay: Cell cycle arrest in human Hep3B cells assessed as accumulation of cells at G0/G1 phase at 10 nM measured after 24 hrs incubation by PI staining based flow cytometry (reference value: 48%); type: functional
Huh-7 [6] = assay: In vivo apoptotic activity against human Huh-7 cells xenografted in female BALB/c mouse assessed as tumor apoptosis at 2 mg/kg, iv total 4 doses measured on day 17 relative to control by TUNEL assay; type: functional, organism-based; conditions: time 17.0 day
Huh-7 [7] = assay: Induction of DNA damage in human irradiated Huh-7 cells assessed as increase in DNA double break by measuring number of gamma-H2AX foci formation at 100 nM measured after 24 hrs by immunostaining assay (reference value: 6 +/- 2 foci); type: functional
Huh-7 [8] = assay: In vivo antitumor activity against human Huh-7 cells xenografted in female BALB/c mouse assessed as reduction in tumor volume at 2 mg/kg, iv total 4 doses measured on day 17 relative to control; type: functional; design: scale not given: the % may be the effect or the level left; conditions: time 17 day
Huh-7 [9] = assay: Cell cycle arrest in human Huh-7 cells assessed as accumulation of cells at S phase at 50 nM measured after 24 hrs incubation by PI staining based flow cytometry (reference value: 37.30%); type: functional
LX-2 [10] = assay: Cell cycle arrest in human LX-2 cells assessed as accumulation of cells at S phase at 100 nM measured after 24 hrs incubation by PI staining based flow cytometry (reference value: 36.93%); type: functional
Huh-7 [11] = assay: Radiosensitivity in human Huh-7 cells assessed as […] pre-treated overnight at 10 nM followed by irradiated with 2 Gy and measured after 14 days post treatment by crystal staining based clonogenic assay relative to compound alone/irradiation alone; type: functional; conditions: time 14.0 day
Huh-7 [12] = assay: Cell cycle arrest in human Huh-7 cells assessed as accumulation of cells at S phase at 10 nM measured after 24 hrs incubation by PI staining based flow cytometry (reference value: 33.15%); type: functional
LX-2 [13] = assay: Cell cycle arrest in human LX-2 cells assessed as accumulation of cells at S phase at 10 nM measured after 24 hrs incubation by PI staining based flow cytometry (reference value: 36.93%); type: functional
Hep 3B2 [14] = assay: Cell cycle arrest in human Hep3B cells assessed as accumulation of cells at G2/M phase at 10 nM measured after 24 hrs incubation by PI staining based flow cytometry (reference value: 23%); type: functional
LX-2 [15] = assay: Cell cycle arrest in human LX-2 cells assessed as accumulation of cells at G2/M phase at 100 nM measured after 24 hrs incubation by PI staining based flow cytometry (reference value: 14.65%); type: functional
Huh-7 [16] = assay: In vivo antitumor activity against human Huh-7 cells xenografted in female BALB/c mouse assessed as reduction in tumor volume at 1 mg/kg, iv total 4 doses measured on day 17 relative to control; type: functional; design: scale not given: the % may be the effect or the level left; conditions: time 17 day
LX-2 [17] = assay: Cell cycle arrest in human LX-2 cells assessed as accumulation of cells at G0/G1 phase at 100 nM measured after 24 hrs incubation by PI staining based flow cytometry (reference value: 48.42%); type: functional
Huh-7 [18] = assay: Cell cycle arrest in human Huh-7 cells assessed as accumulation of cells at G0/G1 phase at 10 nM measured after 24 hrs incubation by PI staining based flow cytometry (reference value: 47.97%); type: functional

SMILES: CC[C@H](C)[C@@H]([C@@H](CC(=O)N1CCC[C@H]1[C@H](OC)[C@@H](C)C(=O)N[C@H](C)[C@@H](O)c1ccccc1)OC)N(C)C(=O)[C@@H](NC(=O)[C@H](C(C)C)N(C)C(=O)OCc1ccc(NC(=O)[C@H](CCCNC(N)=O)NC(=O)[C@@H](NC(=O)CCCCCN2C(=O)CC(SC[C@H](N)C(=O)N[C@@H](CO)C(=O)N[C@@H](CC(N)=O)C(=O)N[C@@H](CC(=O)O)C(=O)N[C@@H](CCCNC(=N)N)C(=O)N3CCC[C@@H]3C(=O)N3CCC[C@@H]3C(=O)N[C@@H](CC(N)=O)C(=O)N[C@H](C(=O)N[C@@H](CC(C)C)C(=O)N[C@@H](CCC(N)=O)C(=O)N[C@@H](CCCCN)C(=O)N[C@@H](CCCNC(=N)N)C(N)=O)[C@@H](C)CC)C2=O)C(C)C)cc1)C(C)C (stereo partly drawn)
- Activity (Huh-7 [1]): Active
- Activity (LX-2 [2]): 15.25%
- Activity (Huh-7 [3]): 15%
- Activity (Huh-7 [4]): 49.02%
- Activity (Hep 3B2 [5]): 41.26%
- Activity (Huh-7 [6]): Active
- Activity (Huh-7 [7]): 18
- Activity (Huh-7 [8]): 66%
- Activity (Huh-7 [9]): 14.94%
- Activity (LX-2 [10]): 37.25%
- Activity (Huh-7 [11]): Active
- Activity (Huh-7 [12]): 13.8%
- Activity (LX-2 [13]): 38.15%
- Activity (Hep 3B2 [14]): 39.22%
- Activity (LX-2 [15]): 23.65%
- Activity (Huh-7 [16]): 40%
- Activity (LX-2 [17]): 39.1%
- Activity (Huh-7 [18]): 50.55%
